Patent US20250147039A1, “Compounds for complexation of rare earth elements and/or s-, p-, d- block metals, their coordination compounds, peptide conjugates, method of their preparation and use thereof” (USTAV ORGANICKE CHEMIE A BIOCHEMIE AV CR V.V.I., priority 2021, published 2025)

Legend:
[1] = Formation of 1,5-cz-[M(Lig)] from Lig and M^III ions (metal dependent click-zip) (Charts 4, 5); format: physicochemical; conditions: MOPS/NaOH buffer pH 7.0, TD728, TD827 in 50% i-PrOH; for conversion to 1,5-cz-[M(Lig)], Y^III: TD714 sum of two diastereoisomers
[2] = Formation of 1,5-cz-[Ln(Lig)] from Lig and Ln^III ions (metal dependent click-zip), MOPS/NaOH buffer pH 7.0, analytical HPLC (Charts 1, 2); conditions: MOPS/NaOH buffer pH 7.0

SMILES | conversion to 1,5-cz-[M(Lig)], Sc^III ([1]; 1 week at 80° C.) | conversion to 1,5-cz-[M(Lig)], Y^III ([1]; 1 week at 80° C.) | conversion to 1,5-cz-[M(Lig)], Sc^III ([1]; 1 hour at 80° C.) | conversion to 1,5-cz-[M(Lig)], Y^III ([1]; 1 hour at 80° C.) | conversion to 1,5-cz-[Ln(Lig)], Ce^III ([2]; after 1 week at 80° C.) | conversion to 1,5-cz-[Ln(Lig)], Ce^III ([2]; after 1 hour at 80° C.) | conversion to 1,5-cz-[Ln(Lig)], Dy^III ([2]; after 1 week at 80° C.) | conversion to 1,5-cz-[Ln(Lig)], Dy^III ([2]; after 1 hour at 80° C.) | conversion to 1,5-cz-[Ln(Lig)], Er^III ([2]; after 1 week at 80° C.) | conversion to 1,5-cz-[Ln(Lig)], Er^III ([2]; after 1 hour at 80° C.) | conversion to 1,5-cz-[Ln(Lig)], Eu^III ([2]; after 1 week at 80° C.) | conversion to 1,5-cz-[Ln(Lig)], Eu^III ([2]; after 1 hour at 80° C.) | conversion to 1,5-cz-[Ln(Lig)], Gd^III ([2]; after 1 week at 80° C.) | conversion to 1,5-cz-[Ln(Lig)], Gd^III ([2]; after 1 hour at 80° C.) | conversion to 1,5-cz-[Ln(Lig)], Ho^III ([2]; after 1 week at 80° C.) | conversion to 1,5-cz-[Ln(Lig)], Ho^III ([2]; after 1 hour at 80° C.) | conversion to 1,5-cz-[Ln(Lig)], La^III ([2]; after 1 week at 80° C.) | conversion to 1,5-cz-[Ln(Lig)], La^III ([2]; after 1 hour at 80° C.) | conversion to 1,5-cz-[Ln(Lig)], Lu^III ([2]; after 1 week at 80° C.) | conversion to 1,5-cz-[Ln(Lig)], Lu^III ([2]; after 1 hour at 80° C.) | further results
C#Cc1cccc(CN2CCN(CC(=O)NCC(=O)O)CCN(Cc3cc(-c4ccccc4)cc(CN=[N+]=[N-])n3)CCN(CC(=O)NCC(=O)O)CC2)n1 [TD778] | 0% | 27% | 0% | 17% | 0% | 20% | 18% | 13% | 32% | 25% | 3% | 4% | 11% | 4% | 30% | 17% | 0% | 24% | 34% | 26% | conversion to 1,5-cz-[Ln(Lig)], Nd^III ([2]; after 1 week at 80° C.): 0%; conversion to 1,5-cz-[Ln(Lig)], Nd^III ([2]; after 1 hour at 80° C.): 9%; conversion to 1,5-cz-[Ln(Lig)], Pr^III ([2]; after 1 week at 80° C.): 0%; conversion to 1,5-cz-[Ln(Lig)], Pr^III ([2]; after 1 hour at 80° C.): 13%; conversion to 1,5-cz-[Ln(Lig)], Sm^III ([2]; after 1 week at 80° C.): 1%; conversion to 1,5-cz-[Ln(Lig)], Sm^III ([2]; after 1 hour at 80° C.): 4%; conversion to 1,5-cz-[Ln(Lig)], Tb^III ([2]; after 1 week at 80° C.): 15%; conversion to 1,5-cz-[Ln(Lig)], Tb^III ([2]; after 1 hour at 80° C.): 9%; conversion to 1,5-cz-[Ln(Lig)], Tm^III ([2]; after 1 week at 80° C.): 31%; conversion to 1,5-cz-[Ln(Lig)], Tm^III ([2]; after 1 hour at 80° C.): 31%; conversion to 1,5-cz-[Ln(Lig)], Yb^III ([2]; after 1 week at 80° C.): 27%; conversion to 1,5-cz-[Ln(Lig)], Yb^III ([2]; after 1 hour at 80° C.): 30%
C#Cc1cccc(CN2CCN(CC(N)=O)CCN(Cc3cc(-c4ccccc4)cc(CN=[N+]=[N-])n3)CCN(CC(N)=O)CC2)n1 [TD779] | 0% | 0% | 0% | 4% | 0% | 0% | 0% | 8% | 0% | 12% | 0% | 2% | 0% | 3% | 0% | 10% | 0% | 0% | 0% | 5% | conversion to 1,5-cz-[Ln(Lig)], Nd^III ([2]; after 1 week at 80° C.): 0%; conversion to 1,5-cz-[Ln(Lig)], Nd^III ([2]; after 1 hour at 80° C.): 0%; conversion to 1,5-cz-[Ln(Lig)], Pr^III ([2]; after 1 week at 80° C.): 0%; conversion to 1,5-cz-[Ln(Lig)], Pr^III ([2]; after 1 hour at 80° C.): 0%; conversion to 1,5-cz-[Ln(Lig)], Sm^III ([2]; after 1 week at 80° C.): 0%; conversion to 1,5-cz-[Ln(Lig)], Sm^III ([2]; after 1 hour at 80° C.): 1%; conversion to 1,5-cz-[Ln(Lig)], Tb^III ([2]; after 1 week at 80° C.): 0%; conversion to 1,5-cz-[Ln(Lig)], Tb^III ([2]; after 1 hour at 80° C.): 6%; conversion to 1,5-cz-[Ln(Lig)], Tm^III ([2]; after 1 week at 80° C.): 0%; conversion to 1,5-cz-[Ln(Lig)], Tm^III ([2]; after 1 hour at 80° C.): 9%; conversion to 1,5-cz-[Ln(Lig)], Yb^III ([2]; after 1 week at 80° C.): 0%; conversion to 1,5-cz-[Ln(Lig)], Yb^III ([2]; after 1 hour at 80° C.): 9%
C#Cc1cccc(CN2CCN(CCC(=O)O)CCN(Cc3cccc(CN=[N+]=[N-])n3)CCN(CCC(=O)O)CC2)n1 [TD801] | 0% | 0% | 0% | 0% | 0% | 0% | 0% | 0% | 0% | 0% | 0% | 0% | 0% | 0% | 0% | 0% | 0% | 0% | 0% | 0% | conversion to 1,5-cz-[Ln(Lig)], Nd^III ([2]; after 1 week at 80° C.): 0%; conversion to 1,5-cz-[Ln(Lig)], Nd^III ([2]; after 1 hour at 80° C.): 0%; conversion to 1,5-cz-[Ln(Lig)], Pr^III ([2]; after 1 week at 80° C.): 0%; conversion to 1,5-cz-[Ln(Lig)], Pr^III ([2]; after 1 hour at 80° C.): 0%; conversion to 1,5-cz-[Ln(Lig)], Sm^III ([2]; after 1 week at 80° C.): 0%; conversion to 1,5-cz-[Ln(Lig)], Sm^III ([2]; after 1 hour at 80° C.): 0%; conversion to 1,5-cz-[Ln(Lig)], Tb^III ([2]; after 1 week at 80° C.): 0%; conversion to 1,5-cz-[Ln(Lig)], Tb^III ([2]; after 1 hour at 80° C.): 0%; conversion to 1,5-cz-[Ln(Lig)], Tm^III ([2]; after 1 week at 80° C.): 0%; conversion to 1,5-cz-[Ln(Lig)], Tm^III ([2]; after 1 hour at 80° C.): 0%; conversion to 1,5-cz-[Ln(Lig)], Yb^III ([2]; after 1 week at 80° C.): 0%; conversion to 1,5-cz-[Ln(Lig)], Yb^III ([2]; after 1 hour at 80° C.): 0%
